Measured values: patent US20100317624A1 (ASTRAZENECA AB, priority 2009, published 2010)
Counter-ions that a name gives are not always drawn.

Molecular target: S. aureus GyrB ATPase (Staphylococcus aureus, UniProt P0A0K8)
Assay: S. aureus GyrB ATPase inhibition (ammonium molybdate/malachite green phosphate detection)
Assay type: biochemical
Conditions: compound at 1 μM; inhibition of S. aureus GyrB ATPase; read-out: Percent Inhibition (1 μM)
Method: S. aureus GyrB ATPase Inhibition Activity: Compounds may be tested for inhibition of S. aureus GyrB ATPase activity using an ammonium molybdate/malachite green-based phosphate detection assay (Lanzetta, P. A., L. J. Alvarez, P. S. Reinach, and O. A. Candia, 1979, 100: 95-97). Assays can be performed in multiwell plates in 30 μl reactions containing: 50 mM Hepes buffer pH 7.5, 75 mM ammonium acetate, 8.0 mM magnesium chloride, 0.5 mM ethylenediaminetetraacetic acid, 5% glycerol, 1.0 mM 1,4-Dithio-DL-threitol, 200 nM bovine serum albumin, 1.0 μg/ml sheared salmon sperm DNA, 250 pM E. coli GyrA, 250 pM S. aureus GyrB, 250 μM ATP, and compound in dimethylsulfoxide. Reactions can be quenched with 30 μl of ammonium molybdate/malachite green detection reagent containing 1.2 mM malachite green hydrochloride, 8.5 mM ammonium molybdate tetrahydrate, and 1 M hydrochloric acid. Plates can be read in an absorbance plate reader at 650 nm and percent inhibition values can be calculated using dimethylsulfoxide (2%)-containing reactions as 0% inhibition and EDTA-containing ([…]) reactions as 100% inhibition controls. An IC50 measurement of compound potency for each compound can be determined from reactions performed in the presence of 10 different compound concentrations.

S. aureus GyrB ATPase, sequence (P0AES4 whole entry): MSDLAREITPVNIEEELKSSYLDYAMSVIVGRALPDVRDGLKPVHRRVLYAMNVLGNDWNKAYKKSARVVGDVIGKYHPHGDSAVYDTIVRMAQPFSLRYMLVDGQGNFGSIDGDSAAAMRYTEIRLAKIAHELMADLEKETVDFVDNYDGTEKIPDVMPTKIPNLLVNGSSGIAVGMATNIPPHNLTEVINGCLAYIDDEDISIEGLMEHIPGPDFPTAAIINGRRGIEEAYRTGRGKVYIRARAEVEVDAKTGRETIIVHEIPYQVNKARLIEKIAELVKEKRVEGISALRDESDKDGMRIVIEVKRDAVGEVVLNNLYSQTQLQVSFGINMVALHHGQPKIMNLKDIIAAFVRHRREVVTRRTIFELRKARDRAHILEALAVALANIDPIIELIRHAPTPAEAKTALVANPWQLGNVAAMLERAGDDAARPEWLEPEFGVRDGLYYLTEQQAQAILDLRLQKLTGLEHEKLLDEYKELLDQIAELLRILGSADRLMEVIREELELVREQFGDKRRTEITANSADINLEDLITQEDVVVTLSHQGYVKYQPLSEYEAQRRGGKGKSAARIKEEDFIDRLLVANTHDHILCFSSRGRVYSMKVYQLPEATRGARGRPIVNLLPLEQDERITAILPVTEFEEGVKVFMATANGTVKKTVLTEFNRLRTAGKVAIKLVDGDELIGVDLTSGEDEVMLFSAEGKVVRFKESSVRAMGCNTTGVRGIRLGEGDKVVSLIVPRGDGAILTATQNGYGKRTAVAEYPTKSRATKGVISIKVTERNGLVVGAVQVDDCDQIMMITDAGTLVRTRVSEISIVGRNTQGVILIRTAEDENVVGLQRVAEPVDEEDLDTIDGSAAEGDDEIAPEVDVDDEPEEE
S. aureus GyrB ATPase, sequence (P0A0K8 whole entry): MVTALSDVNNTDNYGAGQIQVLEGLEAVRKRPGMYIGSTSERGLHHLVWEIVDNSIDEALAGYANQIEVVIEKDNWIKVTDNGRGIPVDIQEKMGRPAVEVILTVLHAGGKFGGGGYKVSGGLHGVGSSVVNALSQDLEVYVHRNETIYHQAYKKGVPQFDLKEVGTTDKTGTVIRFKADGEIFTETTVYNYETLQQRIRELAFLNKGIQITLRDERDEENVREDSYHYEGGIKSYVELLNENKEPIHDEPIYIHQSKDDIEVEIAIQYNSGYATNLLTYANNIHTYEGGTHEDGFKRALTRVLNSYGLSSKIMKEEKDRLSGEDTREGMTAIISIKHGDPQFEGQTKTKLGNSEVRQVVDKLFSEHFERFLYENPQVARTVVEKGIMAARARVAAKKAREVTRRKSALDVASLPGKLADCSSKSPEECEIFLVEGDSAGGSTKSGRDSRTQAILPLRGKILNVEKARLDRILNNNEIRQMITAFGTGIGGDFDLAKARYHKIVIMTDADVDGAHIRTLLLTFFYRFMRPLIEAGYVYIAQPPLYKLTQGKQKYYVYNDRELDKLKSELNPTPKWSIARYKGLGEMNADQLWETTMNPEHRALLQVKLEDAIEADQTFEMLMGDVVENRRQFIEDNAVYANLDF

| Structure (SMILES) | inhibition at 1 µM [%] |
| --- | --- |
| CCNC(=O)Nc1cc(-c2nc(C(F)(F)F)cs2)c(-c2ccc3c(c2)c(=O)c(C(=O)O)cn3[C@H]2[C@@H]3CN(C)C[C@@H]32)cn1 [Example 35, 6-{6-[(ethylcarbamoyl)amino]-4-[4-(trifluoromethyl)-1,3-thiazol-2-yl]pyridin-3-yl}-1-[(1R,5S,6s)-3-methyl-3-azabicyclo[3.1.0]hex-6-yl]-4-oxo-1,4-dihydroquinoline-3-carboxylic acid] | 108 |
| CCNC(=O)Nc1cc(-c2nc(C(F)(F)F)cs2)c(-c2ccc3c(c2)c(=O)c(C(=O)OCCOC(=O)C(C)(C)C)cn3C(COC)COC)cn1 [Example 44, 2-(pivaloyloxy)ethyl 1-(1,3-dimethoxypropan-2-yl)-6-(6-(3-ethylureido)-4-(4-(trifluoromethyl)thiazol-2-yl)pyridin-3-yl)-4-oxo-1,4-dihydroquinoline-3-carboxylate] | 98 |
| CCNC(=O)Nc1cc(-c2nc(C(F)(F)F)cs2)c(-c2ccc3c(c2)c(=O)c(C(=O)O)cn3[C@@H](CC)COP(=O)(O)O)cn1 [Example 5, (S)-6-(6-(3-ethylureido)-4-(4-(trifluoromethyl)thiazol-2-yl)pyridin-3-yl)-4-oxo-1-(1-(phosphonooxy)butan-2-yl)-1,4-dihydroquinoline-3-carboxylic acid] | 120 |
| CCNC(=O)Nc1cc(-c2nc(C(F)(F)F)cs2)c(-c2cc3c(=O)c(C(=O)O)cn(CC(C)N(C)C)c3cc2F)cn1 (stereo not shown) [Example 51, 1-(2-(dimethylamino)propyl)-6-(6-(3-ethylureido)-4-(4-(trifluoromethyl)thiazol-2-yl)pyridin-3-yl)-7-fluoro-4-oxo-1,4-dihydroquinoline-3-carboxylic acid] | 95 |
| CCNC(=O)Nc1cc(-c2nc(C(F)(F)F)cs2)c(-c2cc3c(=O)c(C(=O)O)cn(CC)c3cc2OCCN(C)C)cn1 [Example 47, 7-(2-(dimethylamino)ethoxy)-1-ethyl-6-(6-(3-ethylureido)-4-(4-(trifluoromethyl)thiazol-2-yl)pyridin-3-yl)-4-oxo-1,4-dihydroquinoline-3-carboxylic acid] | 110 |
| CCNC(=O)Nc1cc(-c2nc(C(F)(F)F)cs2)c(-c2cc3c(=O)c(C(=O)O)cn(CCN4CCOCC4)c3cc2F)cn1 [Example 50, 6-(6-(3-ethylureido)-4-(4-(trifluoromethyl)thiazol-2-yl)pyridin-3-yl)-7-fluoro-1-(2-morpholinoethyl)-4-oxo-1,4-dihydroquinoline-3-carboxylic acid] | 106 |
| CCNC(=O)Nc1cc(-c2nc(C(F)(F)F)cs2)c(-c2ccc3c(=O)c(C(=O)NCCCOP(=O)(O)O)cn(CCC(C)C)c3c2)cn1 [Example 16, 3-({[7-{6-[(ethylcarbamoyl)amino]-4-[4-(trifluoromethyl)-1,3-thiazol-2-yl]pyridin-3-yl}-1-(3-methylbutyl)-4-oxo-1,4-dihydroquinolin-3-yl]carbonyl}amino)propyl dihydrogen phosphate] | 100 |
| CCNC(=O)Nc1cc(-c2nc(C(F)(F)F)cs2)c(-c2ccc3c(=O)c(C(=O)NCCCOP(=O)(O)O)cn(CC4CC4)c3c2)cn1 [Example 15, phosphate hydrochloride] | 76 |
| CCNC(=O)Nc1cc(-c2nc(C(F)(F)F)cs2)c(-c2cc3c(=O)c(C(=O)O)cn(CCN(C)C)c3cc2NCCN(C)C)cn1 [Example 55, 1-(2-(dimethylamino)ethyl)-7-(2-(dimethylamino)ethylamino)-6-(6-(3-ethylureido)-4-(4-(trifluoromethyl)thiazol-2-yl)pyridin-3-yl)-4-oxo-1,4-dihydroquinoline-3-carboxylic acid] | 100 |
| CCNC(=O)Nc1cc(-c2nc(C(F)(F)F)cs2)c(-c2cc3c(=O)c(C(=O)O)cn(C[C@@H]4CCCN4CC)c3cc2OCCN(C)C)cn1 [Example 25, 7-(2-(dimethylamino)ethoxy)-1-(((S)-1-ethylpyrrolidin-2-yl)methyl)-6-(6-(3-ethylureido)-4-(4-(trifluoromethyl)thiazol-2-yl)pyridin-3-yl)-4-oxo-1,4-dihydroquinoline-3-carboxylic acid] | 98 |
| CCNC(=O)Nc1cc(-c2nc(C(F)(F)F)cs2)c(-c2ccc3c(c2)c(=O)c(C(=O)OCOC(=O)C(C)(C)C)cn3C(COC)COC)cn1 [Example 39, Pivaloyloxymethyl 1-(1,3-dimethoxypropan-2-yl)-6-(6-(3-ethylureido)-4-(4-(trifluoromethyl)thiazol-2-yl)pyridin-3-yl)-4-oxo-1,4-dihydroquinoline-3-carboxylate] | 102 |
| CCNC(=O)Nc1cc(-c2nc(-c3ccccc3)cs2)c(-c2cc3c(=O)c(C(=O)O)cn(C[C@H]4CCCN4CC)c3cc2OCCN(CC)CC)cn1 [Example 45, (R)-7-(2-(diethylamino)ethoxy)-1-((1-ethylpyrrolidin-2-yl)methyl)-6-(6-(3-ethylureido)-4-(4-phenylthiazol-2-yl)pyridin-3-yl)-4-oxo-1,4-dihydroquinoline-3-carboxylic acid] | 102 |
| CCNC(=O)Nc1cc(-c2nc(C(F)(F)F)cs2)c(-c2ccc3c(c2)c(=O)c(C(=O)O)cn3[C@H](COP(=O)(O)O)C(C)(C)C)cn1 [Example 3, (S)-1-(3,3-dimethyl-1-(phosphonooxy)butan-2-yl)-6-(6-(3-ethylureido)-4-(4-(trifluoromethyl)thiazol-2-yl)pyridin-3-yl)-4-oxo-1,4-dihydroquinoline-3-carboxylic acid] | 108 |
| CCNC(=O)Nc1cc(-c2nc(C(F)(F)F)cs2)c(-c2ccc3c(c2)c(=O)c(C(=O)NCCOP(=O)(O)O)cn3C2CC2)cn1 [Example 9, 2-(1-cyclopropyl-6-(6-(3-ethylureido)-4-(4-(trifluoromethyl)thiazol-2-yl)pyridin-3-yl)-4-oxo-1,4-dihydroquinoline-3-carboxamido)ethyl dihydrogen phosphate hydrochloride] | 103 |
| CCNC(=O)Nc1cc(-c2nc(C(F)(F)F)cs2)c(-c2ccc3c(c2)c(=O)c(C(=O)O)cn3C[C@H]2CCN(CCN3CCN(C)CC3)C2)cn1 [Example 37, (S)-6-(6-(3-ethylureido)-4-(4-(trifluoromethyl)thiazol-2-yl)pyridin-3-yl)-1-((1-(2-(4-methylpiperazin-1-yl)ethyl)pyrrolidin-3-yl)methyl)-4-oxo-1,4-dihydroquinoline-3-carboxylic acid] | 100 |
| CCNC(=O)Nc1cc(-c2nc(C(F)(F)F)cs2)c(-c2ccc3c(c2)c(=O)c(C(=O)OCc2oc(=O)oc2C)cn3C(COC)COC)cn1 [Example 40, (5-methyl-2-oxo-1,3-dioxo1-4-yl)methyl 1-(1,3-dimethoxypropan-2-yl)-6-(6-(3-ethylureido)-4-(4-(trifluoromethyl)thiazol-2-yl)pyridin-3-yl)-4-oxo-1,4-dihydroquinoline-3-carboxylate] | 97 |
| CCNC(=O)Nc1cc(-c2nc(C(F)(F)F)cs2)c(-c2cc3c(=O)c(C(=O)O)cn(C4CC4)c3cc2Cl)cn1 [Example 54, 7-chloro-1-cyclopropyl-6-(6-(3-ethylureido)-4-(4-(trifluoromethyl)thiazol-2-yl)pyridin-3-yl)-4-oxo-1,4-dihydroquinoline-3-carboxylic acid] | 126 |
| CCNC(=O)Nc1cc(-c2nc(C(F)(F)F)cs2)c(-c2cc3c(=O)c(C(=O)O)cn(CCN(C)C)c3cc2OCCN(C)C)cn1 [Example 26, 7-(2-(dimethylamino)ethoxy)-1-(2-(dimethylamino)ethyl)-6-(6-(3-ethylureido)-4-(4-(trifluoromethyl)thiazol-2-yl)pyridin-3-yl)-4-oxo-1,4-dihydroquinoline-3-carboxylic acid] | 108 |
| CCNC(=O)Nc1cc(-c2nc(C(F)(F)F)cs2)c(-c2cc3c(=O)c(C(=O)O)cn([C@H](CO)CC(C)C)c3cc2F)cn1 [Example 52, (S)-6-(6-(3-ethylureido)-4-(4-(trifluoromethyl)thiazol-2-yl)pyridin-3-yl)-7-fluoro-1-(1-hydroxy-4-methylpentan-2-yl)-4-oxo-1,4-dihydroquinoline-3-carboxylic acid] | 103 |
| CCNC(=O)Nc1cc(-c2nc(C(F)(F)F)cs2)c(-c2ccc3c(c2)c(=O)c(C(=O)OCCOP(=O)(O)O)cn3C(COC)COC)cn1 [Example 19, 2-(phosphonooxy)ethyl 1-(1,3-dimethoxypropan-2-yl)-6-(6-(3-ethylureido)-4-(4-(trifluoromethyl)thiazol-2-yl)pyridin-3-yl)-4-oxo-1,4-dihydroquinoline-3-carboxylate] | 110 |
| CCNC(=O)Nc1cc(-c2nc(-c3ccccc3)cs2)c(-c2cc3c(=O)c(C(=O)O)cn(C[C@@H]4CCCN4CC)c3cc2OCCN(C)C)cn1 [Example 23, 7-(2-(dimethylamino)ethoxy)-1-(((S)-1-ethylpyrrolidin-2-yl)methyl)-6-(6-(3-ethylureido)-4-(4-phenylthiazol-2-yl)pyridin-3-yl)-4-oxo-1,4-dihydroquinoline-3-carboxylic acid] | 100 |
| CCCn1cc(C(=O)NCCCOP(=O)(O)O)c(=O)c2ccc(-c3cnc(NC(=O)NCC)cc3-c3nc(C(F)(F)F)cs3)cc21 [Example 17, 3-{[(7-{6-[(ethylcarbamoyl)amino]-4-[4-(trifluoromethyl)-1,3-thiazol-2-yl]pyridin-3-yl}-4-oxo-1-propyl-1,4-dihydroquinolin-3-yl)carbonyl]amino}propyl dihydrogen phosphate] | 100 |
